Like-named read-outs stand apart in the source and are kept apart here.
Columns and labels:
786-0 (renal cancer) = test: NCI method SRB growth inhibition, 786-0; type: cell-based; conditions: Homo sapiens; 786-0, treated 48 hours, SRB stain
Text: (§1) In this embodiment, the method of National Cancer Institute (NCI) was used to evaluate the anti-tumor activity of the embodiment compounds in the present disclosure. Nine representative cell lines were selected for activity evaluation, including A549 (non-small cell lung cancer), HCT116 (colon cancer), SF295 (central nervous system tumor), LOX-IMVI (melanoma), 786-0 (renal cancer), K562 (leukemia), PC-3 (prostate cancer), OVCAR-3 (ovarian cancer) and HS 578T (breast cancer).
(§2) The specific method was as follows: 60 tumor cell lines of 9 kinds of human cancers were used to evaluate the inhibitory activity of the compound in vitro. A test group, a parallel control group and a vehicle control group were set up. The parallel control group was fixed immediately before the compound was added; the cells in the test group were fixed after being treated with the compound for 48 hours; the vehicle control group was fixed after an equal volume of complete medium was added for 48 hours. Sulforhodamine B (SRB) was used to stain, and the OD value was measured at a wavelength of 515 nm. The specific calculation method was as follows: the OD value of the parallel control group was recorded as Tz, the OD value of the vehicle control group was recorded as C, and the OD value of the test group was recorded as (Ti). If Ti≥Tz, it means that the cells still grow after the drug was added, and the growth rate %=[(Ti−Tz)/(C−Tz)]×100; if Ti<Tz, it means that the cells are killed after the drug was added, and the growth rate %=[(Ti−Tz)/Tz]×100. Three parameters were used to evaluate the anti-tumor activity of compounds in this method: 50% growth inhibitory concentration (GI50): i.e. the compound concentration at [(Ti−Tz)/(C−Tz)]×100=50; complete growth inhibitory concentration (TGI): the compound concentration at Ti=Tz; the drug concentration required to kill 50% of the cells (LC50): i.e. the compound concentration at [(Ti−Tz)/Tz]×100=−50.
(§3) The inhibitory activities of the embodiment compounds on nine representative tumor cell lines were listed in detail in Table 1. Wherein, the GI50 value means “50% growth inhibition rate”, that is, the concentration of the compound to be tested when it can inhibit […] of cell growth; “ND” means not detected.

[1] = tested on: A549 (non-small cell lung cancer); test: NCI method SRB growth inhibition, A549; type: cell-based; conditions: Homo sapiens; A549, treated 48 hours, SRB stain
Text: as §1, §2, §3

HCT116 (colon cancer) = test: NCI method SRB growth inhibition, HCT116; type: cell-based; conditions: Homo sapiens, HCT-116; HCT116, treated 48 hours, SRB stain
Text: as §1, §2, §3

OVCAR-3 (ovarian cancer) = test: NCI method SRB growth inhibition, OVCAR-3; type: cell-based; conditions: Homo sapiens; OVCAR-3, treated 48 hours, SRB stain
Text: as §1, §2, §3

[2] = Liver microsomes stability; type: in vitro ADME, human; conditions: 1 μM compound, 1 mg/mL human liver microsomes, 1 mM NADPH; for half-life at 1 μM: read-out: T½ of HLM
Method: The compound to be tested with final concentration of 1 μM was incubated with 1 mg/mL of human liver microsomes and 1 mM of NADPH, and a group without NADPH was set as a negative control. The reaction mixture was quenched with methanol at five time points of 0, 5, 15, 30 and 60 min, respectively, then centrifuged at 2500 rpm for 20 min to precipitate proteins, and the resulting supernatant was analyzed by LC-MS/MS. The data was analyzed and the k value and half-life T1/2 was calculated, T1/2(min)=0.693/k.
Wherein, compounds a, b and c are active compounds disclosed in patent No. ZL201610154581.3.

LOX-IMVI (melanoma) = test: NCI method SRB growth inhibition, LOX-IMVI; type: cell-based; conditions: Homo sapiens, treated 48 hours, SRB stain
Text: as §1, §2, §3

[3] = tested on: SF295 (central nervous system tumor); test: NCI method SRB growth inhibition, SF295; type: cell-based; conditions: Homo sapiens, SF-295; SF295, treated 48 hours, SRB stain
Text: as §1, §2, §3

HS 578T (breast cancer) = test: NCI method SRB growth inhibition, HS 578T; type: cell-based; conditions: Homo sapiens, HS578T, treated 48 hours, SRB stain
Text: as §1, §2, §3

K562 (leukemia) = test: NCI method SRB growth inhibition, K562; type: cell-based; conditions: Homo sapiens; K562, treated 48 hours, SRB stain
Text: as §1, §2, §3

PC-3 (prostate cancer) = test: NCI method SRB growth inhibition, PC-3; type: cell-based; conditions: Homo sapiens; PC-3, treated 48 hours, SRB stain
Text: as §1, §2, §3

[4] = tested on: breast cancer cell line SUM159 sphere; test: Breast cancer stem cell sphere formation; type: cell-based, human; conditions: 50 nM
Method: The inhibitory effects of embodiment compounds 5, 7, 11, 13, 14, 20 and 21 on the formation of breast cancer cell line SUM159 sphere are described as follows.
The breast cancer cell line SUM159 sphere was cultured with serum-free medium in an ultra-low adsorption plate, the basal medium was DMEM/F12 (without phenol red), and B27 (without vitamin A) (1×), EGF (20 ng/ml), bFGF (20 ng/ml) and insulin (insulin, 5 ug/ml) were added.
An equal number (4000) of SUM159 cells per well were inoculated into an ultra-low adsorption 24 plate, and the sphere was photographed after 5 days of culture, replaced with fresh medium, and treated with drugs at certain concentrations, respectively. Compounds 5, 7, 11, 13, 14, 20 and 21 were evaluated in this experiment at 50 nM, respectively. The effect of the drug on the sphere phenotype could be observed after about 3 days of drug treatment. The sphere was photographed again after 5 days of drug treatment, and then the sphere was passaged. The sphere was photographed again after 7 days of passage.
The differences of the photographs taken in three different stages were counted and compared, and the killing effect of the tested compounds on SUM159 sphere was evaluated through the differences of sphere formation after passage, thus reflecting the inhibitory effects of different compounds on breast cancer stem cells.

| Structure (SMILES) | microsomal CLint at 1 μM [2] | half-life at 1 μM ([2]; human, human liver microsomes) | T½ of HLM [2] | GI50 (786-0 (renal cancer)) | GI50 [1] | GI50 (HCT116 (colon cancer)) | GI50 (OVCAR-3 (ovarian cancer)) | GI50 (LOX-IMVI (melanoma)) | GI50 [3] | GI50 (HS 578T (breast cancer)) | GI50 (K562 (leukemia)) | GI50 (PC-3 (prostate cancer)) | half-life at 1 μM [2] | microsomal CLint at 1 μM ([2]; human, human liver microsomes) | killing effect on SUM159 sphere [4] | formation of the sphere after cell passage ([4]; 5 days of drug treatment, then passage) |
| --- | --- | --- | --- | --- | --- | --- | --- | --- | --- | --- | --- | --- | --- | --- | --- | --- |
| [2H]C([2H])([2H])c1cc(Oc2cc3c(cc2NC(=O)c2cc(OC)c(OC)c(OC)c2Cl)NC(=O)[C@H](CC(=O)N(CC)CC)NC3=O)cc(C([2H])([2H])[2H])c1 [Compound 23, (S)-2-chloro-N-[3-[2-(diethylamino)-2-oxoethyl]-7-[3,5-bis(trideuteromethyl)phenoxy]-2,5-dioxo-2,3,4,5-tetrahydro-1H-benzo[e][1,4]diazepin-8-yl]-3,4,5-trimethoxybenzamide] | 26.9 µL/min/mg | 25.8 min | – | 67.5 nM | 11.6 nM | < 5 nM | 6.6 nM | < 5 nM | 10.5 nM | 24.9 nM | < 5 nM | 6.1 nM | – | – | – | – |
| [2H]C([2H])([2H])Oc1cc(C(=O)Nc2cc3c(cc2Oc2cc(C)cc(C)c2)C(=O)N(C)[C@@H](CC(=O)N2CCN(C)CC2)C(=O)N3)c(Br)c(OC([2H])([2H])[2H])c1OC([2H])([2H])[2H] [Compound 28] | – | – | – | 66 nM | < 5 nM | < 5 nM | < 5 nM | < 5 nM | 18 nM | < 5 nM | < 5 nM | < 5 nM | 41.8 min | 16.8 µL/min/mg | – | – |
| [2H]C([2H])([2H])Oc1cc(C(=O)Nc2cc3c(cc2Oc2cc(C)cc(C)c2)C(=O)N[C@@H](CC(=O)N(C)OC)C(=O)N3)c(Br)c(OC([2H])([2H])[2H])c1OC([2H])([2H])[2H] [Compound 30] | 4.3 µL/min/mg | 161 min | – | 8.6 nM | 4.9 nM | 7.8 nM | < 5 nM | < 5 nM | 11.6 nM | < 5 nM | 1.6 nM | < 5 nM | – | – | – | – |
| [2H]C([2H])([2H])c1c(OC)cc(C(=O)Nc2cc3c(cc2Oc2cc(C)cc(C)c2)C(=O)N[C@@H](CC(=O)N(CC)CC)C(=O)N3)c(Cl)c1OC [Compound 3, (S)-2-chloro-N-[3-[2-(diethylamino)-2-oxoethyl]-7-(3,5-dimethylphenoxy)-2,5-dioxo-2,3,4,5-tetrahydro-1H-benzo[e][1,4]diazepin-8-yl]-3,5-dimethoxy-4-(trideuteromethyl)benzamide] | 18.1 µL/min/mg | 38 min | 38.3 min | 110 nM | < 5 nM | 11.2 nM | 28.6 nM | 18.4 nM | 53.2 nM | 91.9 nM | 8.4 nM | 43.9 nM | – | – | – | – |
| [2H]C([2H])([2H])Oc1cc(C(=O)Nc2cc3c(cc2Oc2cc(C)cc(C)c2)C(=O)N[C@@H](CC(=O)N(C)OC)C(=O)N3)c(Cl)c(OC([2H])([2H])[2H])c1OC([2H])([2H])[2H] [Compound 35] | 11.7 µL/min/mg | 59.2 min | – | 21.1 nM | < 5 nM | 9.8 nM | < 5 nM | 5.6 nM | 29 nM | 16 nM | < 5 nM | < 5 nM | – | – | – | – |
| [2H]C([2H])([2H])Oc1cc(C(=O)Nc2cc3c(cc2Oc2cc(C)cc(C)c2)C(=O)N[C@@H](CC(=O)N(C([2H])([2H])[2H])C([2H])([2H])[2H])C(=O)N3)c(Br)c(OC([2H])([2H])[2H])c1OC([2H])([2H])[2H] [Compound 21, (S)-2-bromo-N-[3-[2-[bis(trideuteromethyl)amino]-2-oxoethyl]-7-(3,5-dimethylphenoxy)-2,5-dioxo-2,3,4,5-tetrahydro-1H-benzo[e][1,4]diazepin-8-yl]-3,4,5-tris(trideuteromethoxy)benzamide] | – | – | – | 12.9 nM | 6.1 nM | < 5 nM | < 5 nM | < 5 nM | 11.3 nM | – | < 5 nM | < 5 nM | – | – | strong killing effect | significantly reduced |

Continued, in another order:

| microsomal CLint at 1 μM [2] | half-life at 1 μM ([2]; human, human liver microsomes) | T½ of HLM [2] | Structure (SMILES) | GI50 (786-0 (renal cancer)) | GI50 [1] | GI50 (HCT116 (colon cancer)) | GI50 (OVCAR-3 (ovarian cancer)) | GI50 (LOX-IMVI (melanoma)) | GI50 [3] | GI50 (HS 578T (breast cancer)) | GI50 (K562 (leukemia)) | GI50 (PC-3 (prostate cancer)) | half-life at 1 μM [2] | microsomal CLint at 1 μM ([2]; human, human liver microsomes) | killing effect on SUM159 sphere [4] | formation of the sphere after cell passage ([4]; 5 days of drug treatment, then passage) |
| --- | --- | --- | --- | --- | --- | --- | --- | --- | --- | --- | --- | --- | --- | --- | --- | --- |
| 5.4 µL/min/mg | 128 min | – | [2H]C([2H])([2H])Oc1cc(C(=O)Nc2cc3c(cc2Oc2cc(C)cc(C)c2)C(=O)N[C@@H](CC(=O)N2CCN(C)CC2)C(=O)N3)c(Br)c(OC([2H])([2H])[2H])c1OC([2H])([2H])[2H] [Compound 29, (S)-2-bromo-N-[7-(3,5-dimethylphenoxy)-3-[2-(4-methylpiperazin-1-yl)-2-oxoethyl]-2,5-dioxo-2,3,4,5-tetrahydro-1H-benzo[e][1,4]diazepin-8-yl]-3,4,5-tris(trideuteromethoxy)benzamide] | 244 nM | 11.8 nM | 12 nM | < 5 nM | < 5 nM | 93.8 nM | < 5 nM | 4.2 nM | < 5 nM | – | – | – | – |
| 6.8 µL/min/mg | 102 min | – | [2H]C([2H])([2H])Oc1cc(C(=O)Nc2cc3c(cc2Oc2cc(C)cc(C)c2)C(=O)N(C)[C@@H](CC(=O)N(C)OC)C(=O)N3)c(Cl)c(OC([2H])([2H])[2H])c1OC([2H])([2H])[2H] [Compound 36] | 11.9 nM | < 5 nM | < 5 nM | < 5 nM | < 5 nM | 10 nM | 8.5 nM | < 5 nM | < 5 nM | – | – | – | – |
| 13.7 µL/min/mg | 50.6 min | – | [2H]C([2H])([2H])Oc1cc(C(=O)Nc2cc3c(cc2Oc2cc(C)cc(C)c2)C(=O)N(C)[C@@H](CC(=O)N(OC([2H])([2H])[2H])C([2H])([2H])[2H])C(=O)N3)c(Cl)c(OC([2H])([2H])[2H])c1OC([2H])([2H])[2H] [Compound 39] | 9 nM | < 5 nM | 7 nM | < 5 nM | < 5 nM | 12 nM | 6 nM | < 5 nM | < 5 nM | – | – | – | – |

Reference: patent US12577213B2 (NINGBO COMBIREG PHARMACEUTICAL TECHNOLOGY CO., LTD., priority 2020, dated 2026)
